According to patent publication US20240083839A1, “COMPOSITIONS AND METHODS FOR TREATING NEURODEGENERATIVE DISEASES AND DISORDERS” (The Regents of the University of California, priority 2020, published 2024):
Values joined by “and” are separate entries in the source; they are usually repeats but may differ in a detail not shown here. Identical values can stand only once.

Columns and labels:
PRMT1 = PRMT1 (Homo sapiens, UniProt Q99873); assay: Cell-free PRMT enzyme activity assay, PRMT1; assay type: biochemical; conditions: A03 at 5 μM
Source text: Due both the sequence homology and functional similarity of PRMT family members, in follow-up experiments PRMT 1, 4, and 8 inhibitors as well as assays for inhibition by those PRMTs were used. […] The mode & inhibition kinetics to be investigated in the renewal grant.

[1] = system: SirT1 levels in N2a-E4 cells; assay: SirT1 levels by AlphaLISA in ApoE4-transfected N2a cells; assay type: cell-based, murine
Outline: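 SirT1 enhancers screened by AlphaLISA of SirT1 protein in murine N2a neuroblastoma cells stably transfected with ApoE4. E4-AD mice dosed orally at 40 mkd (20 mg/kg BID) for 56 days, then cognition tested by Novel Object Recognition.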

PRMT4 = target: T1, PRMT4 (Homo sapiens, UniProt Q86X55); assay: Cell-free PRMT enzyme activity assay, PRMT4; assay type: biochemical; conditions: A03 at 5 μM
T1 sequence (Q86X55 1-608): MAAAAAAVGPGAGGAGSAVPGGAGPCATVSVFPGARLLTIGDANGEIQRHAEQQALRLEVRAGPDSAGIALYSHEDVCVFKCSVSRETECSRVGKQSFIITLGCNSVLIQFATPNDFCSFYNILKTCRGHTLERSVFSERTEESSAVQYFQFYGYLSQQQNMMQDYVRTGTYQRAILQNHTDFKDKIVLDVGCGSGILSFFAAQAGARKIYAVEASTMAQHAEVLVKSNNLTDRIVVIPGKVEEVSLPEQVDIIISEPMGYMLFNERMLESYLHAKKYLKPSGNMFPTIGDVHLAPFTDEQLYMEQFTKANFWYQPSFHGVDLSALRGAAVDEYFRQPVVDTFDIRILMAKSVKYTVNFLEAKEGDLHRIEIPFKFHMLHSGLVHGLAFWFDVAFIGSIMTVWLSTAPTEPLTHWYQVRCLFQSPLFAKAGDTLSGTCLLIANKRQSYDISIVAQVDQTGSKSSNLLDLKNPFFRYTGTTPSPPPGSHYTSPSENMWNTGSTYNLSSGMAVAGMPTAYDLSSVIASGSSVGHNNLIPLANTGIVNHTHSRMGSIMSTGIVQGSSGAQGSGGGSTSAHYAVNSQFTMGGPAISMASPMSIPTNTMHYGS
Source text: (§1) Due both the sequence homology and functional similarity of PRMT family members, in follow-up experiments PRMT 1, 4, and 8 inhibitors as well as assays for inhibition by those PRMTs were used. […] This profile may be due to its binding to an allosteric site on the PRMT8 enzyme and needs further kinetic analysis. […] The mode & inhibition kinetics to be investigated in the renewal grant.

[2] = system: SirT1 levels in SH-SY5Y cells; assay: SirT1 in SH-SY5Y cells transiently transfected with ApoE4; assay type: cell-based, human
SirT1 mRNA = SirT1 mRNA level in N2a-E4 cells; assay type: cell-based, mouse; conditions: 10 hour time point
[3] = system: PRMT8 protein levels in E4-N2a cells; assay: Immunoblot of PRMT8 protein levels in E4-N2a cells; assay type: cell-based, murine; conditions: 10 μM
Source text: as §1

[4] = system: ApoE4 and RNA polymerase II binding to the SirT1 promoter; assay: ChIP and real time PCR of SirT1 promoter binding in N2a-E4 cells; assay type: cell-based, mouse; conditions: 6 hour treatment (A03 50 μM), versus DMSO
Method: Cells were then fixed with formaldehyde, lysed with SDS buffer, and sonicated using a temperature-controlled Epishear sonication platform at −20° C. to obtain DNA fragments between 200-1000 bp. An EZ-ChIP kit (EMD Millipore) was then used for chromatin immunoprecipitation using anti-ApoE4 mAb (Novus Biologicals) and anti-RNA Polymerase II mAb (Millipore) antibodies. After ChIP crosslinks were reversed and purified ChIP DNA was then analyzed by real time quantitative PCR using SYBR green master mix (Thermo) in a CFX Connect Real-Time PCR Detection System (Bio-Rad) using primers to amplify the ApoE4 binding site in the mouse SirT1 promoter: 5′[…]3′ and 5′[…]3′ (amplicon size of 125 bp). The Signals from each sample were normalized with signal of the input followed by the delta-delta-Ct method and fold change calculated with respect to the vehicle (DMSO).

PRMT8 = PRMT8 (Homo sapiens, UniProt Q9NR22); assay: Cell-free PRMT enzyme activity assay, PRMT8; assay type: biochemical
Source text: as §1
Testing of additional A03 analogs are ongoing. For affinity purification, DDL215 that was used through clicking to beads. […] An initial correlation between cell-free PRMT8 inhibition and neuronal SirT1 enhancement (in cells) at 5 μM was seen (FIG. 10B).

E4-AD mice = assay: Oral treatment of ApoE4-expressing AD model mice (NOR, brain SirT1); assay type: in vivo, mouse; conditions: ApoE4:5×FAD-TR transgenic mice
Method: Prompted by the emerging importance of the associations between ApoE4 and the expression/protein levels of SirT1, high-throughput screening (HTS) of the UCLA compound library was performed using AlphaLISA to detect SirT1 levels in murine neuroblastoma cells stably transfected with ApoE4 (E4-N2a) to identify SirT1 enhancers. […] In the in vivo study, mice were treated orally at 40 mkd (20 mg/kg BID) for 56 days and underwent assessment of cognition in the Novel Object Recognition (NOR) testing paradigm.

Sequence of PRMT8 (Q9NR22 whole entry, species assumed): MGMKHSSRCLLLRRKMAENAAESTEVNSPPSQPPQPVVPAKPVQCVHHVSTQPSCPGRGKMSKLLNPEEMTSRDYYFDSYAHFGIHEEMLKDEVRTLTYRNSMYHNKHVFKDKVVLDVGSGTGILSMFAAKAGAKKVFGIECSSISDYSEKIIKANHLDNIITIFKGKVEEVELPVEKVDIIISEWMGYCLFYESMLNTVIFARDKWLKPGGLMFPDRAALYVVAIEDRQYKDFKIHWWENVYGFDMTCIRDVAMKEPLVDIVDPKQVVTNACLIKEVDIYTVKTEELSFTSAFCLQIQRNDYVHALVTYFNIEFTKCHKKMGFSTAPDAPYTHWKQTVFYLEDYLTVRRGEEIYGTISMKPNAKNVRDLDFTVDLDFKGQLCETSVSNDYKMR
Sequence of PRMT1 (Q99873 whole entry, species assumed): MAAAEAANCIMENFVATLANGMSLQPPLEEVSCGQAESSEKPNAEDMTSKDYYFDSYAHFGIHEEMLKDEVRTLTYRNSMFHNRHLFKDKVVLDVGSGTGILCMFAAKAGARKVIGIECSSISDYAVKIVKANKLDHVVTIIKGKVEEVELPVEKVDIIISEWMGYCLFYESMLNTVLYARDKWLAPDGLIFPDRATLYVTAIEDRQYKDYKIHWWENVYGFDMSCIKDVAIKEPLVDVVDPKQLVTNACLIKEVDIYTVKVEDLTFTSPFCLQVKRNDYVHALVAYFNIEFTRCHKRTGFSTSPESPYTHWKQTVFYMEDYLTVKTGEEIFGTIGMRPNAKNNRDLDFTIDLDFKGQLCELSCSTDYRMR

Row | Compound | PRMT1 inhibition (PRMT1) | SirT1 SOμM [1] | SirT1 SμM [1] | EC50 ([1]; Mus musculus, E4-N2a cells, AlphaLISA, read-out: SirT1 increase EC50) [nM] | SirT1 increase ([1]; N2a-E4 cells) | PRMT4 inhibition (PRMT4) | SirT1 increase [2] | SirT1 mRNA level higher than DMSO control (SirT1 mRNA) [%] | PRMT8 protein levels [3] | ApoE4 binding to the SirT1 promoter [4] | RNA polymerase binding to the SirT1 promoter [4] | PAMPA (PAMPA) | PRMT8 inhibition, ranking (PRMT8; cell-free assay, 0.25 μM) | PRMT8 inhibition (PRMT8; cell-free assay, A03 at 5 μM) | IC50 (PRMT8; cell-free assay, read-out: PRMT8 inhibition IC50) [nM] | dose at maximum of PRMT8 inhibition dose response (PRMT8; hormetic profile, plateau up to 10 μM) [µM] | SirT1 mRNA levels in the brain (E4-AD mice)
1 | CC(N)C(=O)OC(C)(C)Cc1ccc(Cl)cc1 (stereo not shown) [A03, alaproclate] | not PRMT1 or 4 | C (C = 100% increase versus control) | A (A >20%) | ~2300 | increased SirT1 in a dose dependent fashion | not PRMT1 or 4 | SirT1 increases similar to those seen in the E4-N2a cells | 12 | does not alter PRMT8 protein levels | pronounced decrease | increased binding | 3.9 and 4.04 | greatest inhibition | inhibit PRMT8 | ~125 | 0.25 | –
2 | CC(N)C(=O)OC(C)(C)Cc1ccncc1 (stereo not shown) [MP48] | – | – | – | – | – | – | – | – | – | decreased ApoE4 | increased RNA polymerase binding | – | – | – | – | – | increase SirT1 mRNA levels
